Blank lines part the entries; values can stand above or below the compound they belong to.
What was measured:
[1] = tested on: FKB-1 (DNA, aptamer) CGAGCATAGGCAGAACTTACCACCAAGTGAGGGTGTACGGTGGCTTACGCTTGGTCGTAAGAGCGAGTCATTC; experiment: gel elution assay; conditions: 20 mM NaCl, 0.5 mM MgCl2; for binding: 10 mM Tris-HCl pH 7.4, displacement from cDNA-bio, tested at 100 µM
[2] = tested on: FKB-2 (DNA, aptamer) CGAGCATAGGCAGAACTTACCACGAGGACGGGTCAGTGCGTTAGGTGCCCACAGTCGTAAGAGCGAGTCATTC; experiment: gel elution assay; conditions: 20 mM NaCl, 0.5 mM MgCl2; for binding: 10 mM Tris-HCl pH 7.4, displacement from cDNA-bio
[3] = tested on: FKB-3 (DNA, aptamer) CGAGCATAGGCAGAACTTACCACACAGCGTACCTCGTAGCCATGCGCCGTTGGGTCGTAAGAGCGAGTCATTC; experiment: gel elution assay; conditions: 20 mM NaCl, 0.5 mM MgCl2; for binding: 10 mM Tris-HCl pH 7.4, displacement from cDNA-bio
[4] = tested on: FKB-S-5'FAM (DNA, aptamer) CTTACCACCAAGTGAGGGTGTACGGTGGCTTACGCTTGGTCGTAAG; experiment: microscale thermophoresis; conditions: 20 mM NaCl, 0.5 mM MgCl2; 10 mM Tris-HCl pH 7.4, 5% DMSO, 0.05% Tween-20
[5] = tested on: FKB-1-5'FAM (DNA, aptamer) CGAGCATAGGCAGAACTTACCACCAAGTGAGGGTGTACGGTGGCTTACGCTTGGTCGTAAGAGCGAGTCATTC; experiment: microscale thermophoresis; conditions: 20 mM NaCl, 0.5 mM MgCl2; 10 mM Tris-HCl pH 7.4, 5% DMSO, 0.05% Tween-20
[6] = tested on: FKB-S (DNA, aptamer) CTTACCACCAAGTGAGGGTGTACGGTGGCTTACGCTTGGTCGTAAG; experiment: AuNP aggregation colorimetric assay; conditions: NaCl (20 µL of 400 mM added after compound), room temperature, indirect readout
[7] = 10 mM Tris-HCl pH 7.4, room temperature, displaced from cDNA-bio, apparent

Compound: COc1cc(O)c(C(=O)/C=C/c2ccc(O)cc2)c(OC)c1
- binding [1]: no
- binding [2]: weak
- binding [3]: weak
- binding [4]: weak

Compound: COc1cc(O)c(C(=O)/C=C/c2ccccc2)c(OC)c1
- KD [1, 7]: 2.87 µM
- KD [2, 7]: 9.97 µM
- KD [3, 7]: 40.5 µM
- KD [5]: 1.45 µM
- KD [4]: 0.28 µM
- binding ([6]; FKB 0-5 μM): yes

Compound: COc1ccc(/C=C/C(=O)c2c(O)cc(OC)cc2OC)cc1
- binding [1]: no
- binding [2]: weak
- binding [3]: weak
- binding [4]: weak

Compound: O=c1c(O)c(-c2ccc(O)c(O)c2)oc2cc(O)cc(O)c12
- binding [1]: no
- binding [6]: no

Continued, values first:

- binding [1]: no
Compound: O=C(/C=C/c1ccc(O)cc1)c1ccc(O)cc1O

- binding [1]: no
Compound: O=C1c2cccc(O)c2C(=O)c2c(O)cc(CO)cc21

- binding [1]: no
- binding [6]: no
Compound: O=c1c(O)c(-c2cc(O)c(O)c(O)c2)oc2cc(O)cc(O)c12
